From ChEMBL document CHEMBL1201862, “PubChem BioAssay data set” (2004)
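Results reflect a 48-hour exposure of cells in 96-well plates to compound at five concentrations. At the GI50, growth is halved.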 Calls of active or inactive are those of the source. No stated cut-off is given here; in the data, active = GI50 up to about 1.1 µM and inactive = higher.

Assays:
Test in all cases: DTP human tumour cell line panel, 48 h
UACC-62 = system: UACC-62
TK-10 = system: TK-10
OVCAR-5 = system: OVCAR-5
SK-MEL-2 = system: SK-MEL-2
HT-29 = system: HT-29
SNB-75 = system: SNB-75
SN12C = system: SN12C
A549 = system: A549
RPMI-8226 = system: RPMI-8226
IGROV-1 = system: IGROV-1
KM-20L2 = system: KM-20L2
EKVX = system: EKVX
OVCAR-4 = system: OVCAR-4
SW-620 = system: SW-620
K562 = system: K562
DMS-273 = system: DMS-273
NCI-H23 = system: NCI-H23
SNB-19 = system: SNB-19
U-251 = system: U-251
SR = system: SR
M19-MEL = system: M19-MEL
XF498 = system: XF498
SF-295 = system: SF-295
CCRF-CEM = system: CCRF-CEM
DMS-114 = system: DMS-114
NCI-H522 = system: NCI-H522
786-0 = system: 786-0
SF-539 = system: SF-539
HOP-62 = system: HOP-62
HCT-116 = system: HCT-116
KM12 = system: KM12
Malme-3M = system: Malme-3M
M14 = system: M14
SK-MEL-5 = system: SK-MEL-5
ACHN = system: ACHN
UO-31 = system: UO-31
SK-MEL-28 = system: SK-MEL-28
MOLT-4 = system: MOLT-4
SNB-78 = system: SNB-78
NCI-H460 = system: NCI-H460
HCT-15 = system: HCT-15
OVCAR-3 = system: OVCAR-3
OVCAR-8 = system: OVCAR-8
LXFL 529 = system: LXFL 529
NCI-H226 = system: NCI-H226
SF-268 = system: SF-268
RXF 393 = system: RXF 393
COLO 205 = system: COLO 205
LOX IMVI = system: LOX IMVI
CAKI-1 = system: CAKI-1
A498 = system: A498
DLD-1 = system: DLD-1
UACC-257 = system: UACC-257
HL-60 = system: HL-60
SK-OV-3 = system: SK-OV-3
HCC 2998 = system: HCC 2998
HOP-92 = system: HOP-92

For CC(C)(C)S(=O)OC12CC3CC(CC(C3)C1)C2 (centres undefined), the GI50 (UACC-62) was > 100 µM (inactive), the GI50 (TK-10) was > 100 µM (inactive) and the GI50 (OVCAR-5) was > 100 µM (inactive). The GI50 (SK-MEL-2) was > 100 µM (inactive), the GI50 (HT-29) was > 100 µM (inactive) and the GI50 (SNB-75) was 33.8 µM (inactive). The GI50 (SN12C) was > 100 µM (inactive), the GI50 (A549) was > 100 µM (inactive) and the GI50 (RPMI-8226) was > 100 µM (inactive). The GI50 (IGROV-1) was > 100 µM (inactive), the GI50 (KM-20L2) was > 100 µM (inactive) and the GI50 (EKVX) was > 100 µM (inactive). The GI50 (OVCAR-4) was > 100 µM (inactive), the GI50 (SW-620) was > 100 µM (inactive) and the GI50 (K562) was > 10 µM (inactive). For the same compound, the GI50 (DMS-273) was > 100 µM (inactive), the GI50 (NCI-H23) was > 100 µM (inactive) and the GI50 (SNB-19) was > 100 µM (inactive). The GI50 (U-251) was > 100 µM (inactive), the GI50 (SR) was > 100 µM (inactive) and the GI50 (M19-MEL) was > 100 µM (inactive). The GI50 (XF498) was > 100 µM (inactive), the GI50 (SF-295) was > 100 µM (inactive) and the GI50 (CCRF-CEM) was > 100 µM (inactive). For the same compound, the GI50 (DMS-114) was > 100 µM (inactive), the GI50 (NCI-H522) was > 100 µM (inactive) and the GI50 (786-0) was > 100 µM (inactive). For the same compound, the GI50 (SF-539) was > 100 µM (inactive), the GI50 (HOP-62) was > 100 µM (inactive) and the GI50 (HCT-116) was > 100 µM (inactive). The GI50 (KM12) was > 10 µM (inactive), the GI50 (Malme-3M) was > 100 µM (inactive) and the GI50 (M14) was > 100 µM (inactive). The GI50 (SK-MEL-5) was > 100 µM (inactive), the GI50 (ACHN) was > 100 µM (inactive) and the GI50 (UO-31) was 92 µM (inactive). The GI50 (SK-MEL-28) was > 100 µM (inactive), the GI50 (MOLT-4) was > 100 µM (inactive) and the GI50 (SNB-78) was > 100 µM (inactive). For the same compound, the GI50 (NCI-H460) was > 100 µM (inactive), the GI50 (HCT-15) was over 100 µM and the GI50 (OVCAR-3) was > 100 µM (inactive). The GI50 (OVCAR-8) was > 100 µM (inactive), the GI50 (LXFL 529) was > 100 µM (inactive) and the GI50 (NCI-H226) was > 100 µM (inactive). The GI50 (SF-268) was > 100 µM (inactive), the GI50 (RXF 393) was > 100 µM (inactive) and the GI50 (COLO 205) was > 100 µM (inactive). The GI50 (LOX IMVI) was > 100 µM (inactive).

In the case of CCOC(=O)/C=C1\Nc2ccccc2C(c2ccccc2)=NC1OC(C)=O (centres undefined), the GI50 (UACC-62) is reported as 79.6 µM (inactive), the GI50 (SK-MEL-2) is reported as > 100 µM (inactive) and the GI50 (CAKI-1) is reported as 94.6 µM (inactive). For the same compound, the GI50 (HT-29) was 57.5 µM (inactive), the GI50 (SNB-75) was 31.9 µM (inactive) and the GI50 (SN12C) was > 100 µM (inactive). For the same compound, the GI50 (A549) was > 100 µM (inactive), the GI50 (RPMI-8226) was 76.6 µM (inactive) and the GI50 (IGROV-1) was > 100 µM (inactive). For the same compound, the GI50 (EKVX) was > 100 µM (inactive), the GI50 (OVCAR-4) was > 100 µM (inactive) and the GI50 (SW-620) was > 100 µM (inactive). For the same compound, the GI50 (K562) was 97.1 µM (inactive), the GI50 (DMS-273) was > 100 µM (inactive) and the GI50 (NCI-H23) was > 100 µM (inactive). The GI50 (U-251) was > 100 µM (inactive), the GI50 (SR) was 99.1 µM (inactive) and the GI50 (M19-MEL) was > 100 µM (inactive). For the same compound, the GI50 (SF-295) was > 100 µM (inactive), the GI50 (CCRF-CEM) was > 100 µM (inactive) and the GI50 (DMS-114) was > 100 µM (inactive). For the same compound, the GI50 (NCI-H522) was > 100 µM (inactive), the GI50 (786-0) was > 100 µM (inactive) and the GI50 (SF-539) was > 100 µM (inactive). The GI50 (HOP-62) was > 100 µM (inactive), the GI50 (HCT-116) was > 100 µM (inactive) and the GI50 (A498) was > 100 µM (inactive). The GI50 (DLD-1) was > 100 µM (inactive), the GI50 (UACC-257) was > 100 µM (inactive) and the GI50 (KM12) was > 100 µM (inactive). The GI50 (Malme-3M) was > 100 µM (inactive), the GI50 (M14) was > 100 µM (inactive) and the GI50 (SK-MEL-5) was > 100 µM (inactive). For the same compound, the GI50 (HL-60) was 81.5 µM (inactive), the GI50 (ACHN) was > 100 µM (inactive) and the GI50 (UO-31) was 44 µM (inactive). For the same compound, the GI50 (SK-MEL-28) was > 100 µM (inactive), the GI50 (MOLT-4) was > 100 µM (inactive) and the GI50 (SK-OV-3) was > 100 µM (inactive). The GI50 (SNB-78) was > 100 µM (inactive), the GI50 (NCI-H460) was > 100 µM (inactive) and the GI50 (HCT-15) was over 100 µM. For the same compound, the GI50 (HCC 2998) was > 100 µM (inactive), the GI50 (OVCAR-3) was > 100 µM (inactive) and the GI50 (OVCAR-8) was > 100 µM (inactive). For the same compound, the GI50 (LXFL 529) was > 100 µM (inactive), the GI50 (HOP-92) was 32.1 µM (inactive) and the GI50 (SF-268) was > 100 µM (inactive). For the same compound, the GI50 (COLO 205) was > 100 µM (inactive) and the GI50 (LOX IMVI) was > 100 µM (inactive).
